{"source": "patent US6300327A", "about": "“Compositions and methods for potentiation of neurotrophin activity” (The University of Southern California, priority 1997, dated 2001)", "key": {"[1]": {"system": "forebrain cholinergic neurons (cultures of rat basal forebrain)", "experiment": "ChAT activity in primary cultures of fetal rat basal forebrain (septal) cholinergic neurons treated with neurotrophins and K-252 compounds", "assay_type": "cell-based", "conditions": "for NT-3 potentiation (ChAT, cholinergic neurons): 200 ng/ml NT-3 and increasing concentrations of compound (FIG. 6); for ED50, stimulation of ChAT activity: mean±S.E., n=8", "method": "Recombinant human NGF (rhNGF), BDNF (rhBDNF), and NT-3 (rhNT-3) and K-252b were added to primary cultures of fetal rat brain neurons containing either forebrain cholinergic or midbrain dopaminergic neurons. A broad range of concentrations of K-252b were tested in presence of 50 ng/ml rhNGF, 200 ng/ml rhBDNF and 1 μg/ml rhNT-3, growth factor concentrations producing maximal trophic actions on cholinergic neurons. The trophic action was monitored by measuring the activity of ChAT, a parameter reflecting both survival and transmitter-specific differentiation of cholinergic cells.\n(§1) Primary cultures of fetal rat brain septal and mesencephalic cells were prepared in a heretofore known manner [Knusel et al., supra]. Briefly, defined areas were dissected from fetal rat brains (Wistar, E15-16, Charles River, Mass.). The septal area contained the cholinergic neurons from septum, diagonal band of Broca and nucleus basalis. The ventral mesencephalon containing the dopaminergic neurons of the substantia nigra and the ventral tegmental area was dissected and dissociated mechanically. The cells were plated in 16 mm multiwell plates precoated with polyethyleneimine (1 mg/ml, 37° C., overnight), containing 0.5 ml modified L-15 medium supplemented with 5% heat inactivated horse serum and 0.5% heat inactivated fetal calf serum. Modified L-15 was prepared [Knusel et al., \"Selective and Nonselective Stimulation of Central Cholinergic and dopaminergic Development in vitro by Nerve Growth Factor, Basic Fibroblast Growth Factor, Epidermal Growth Factor, Insulin and the Insulin-like Growth Factors I and II,\" J. Neurosci. 10:558-570 (1990)] by adding various amino acids, vitamins, antibiotics, glucose and NaHCO3 to Leibovitz's L-15 medium (Gibco, Grand Island, N.Y.). Plating densities were 4×10^5 cells/cm^2 for basal forebrain cultures and 3×10^5 cells/cm^2 for mesencephalic cultures. Of these cells, 0.5 to 1% were cholinergic or dopaminergic, respectively. Growth factors were typically added on the second day of culture and the cells were grown for 5 or more days. For ChAT assays tissue was homogenized in 250 μl of 50 mM Tris-HCl buffer, pH 6.0 with 0.3% Triton X-100. [1-^14 C]acetylcoenzyme A (NEN) concentration was 20 μM and specific activity 4.09 Ci/mol. To measure dopamine uptake, cultures were preincubated for 5 min at 37° C. with 250 μl incubation solution (5 mM glucose, 1 mM ascorbic acid in PBS) containing 1 mM pargyline. [^3 H]dopamine (37 Ci/mmol) was then added to give a final concentration of 50 nM and the cultures were incubated for another 15 minutes. Blanks were obtained by incubating cells at 0° C.\nFIG. 1 illustrates levels of ChAT activity in cultures of rat basal forebrain treated with rhNGF, rhBDNF, or rhNT- and K-252b. Growth factors were added on the second day of culture and the cells were grown for 5 days. Growth factor concentrations producing maximal elevations of ChAT activity were used. In FIG. 1, .largecircle. represents the control; .quadrature., 50 ng/ml rhNGF; Δ, 200 ng/ml rhBDNF; and .tangle-soliddn., 1 μg/ml rhNT-3. The ChAT stimulation mediated by all three neurotrophins was inhibited by K-252b at concentrations above 200 nM. […] N=4 per data point. Error bars represent SEMs and were omitted where they would have appeared smaller than the symbol.\nThese compounds were accordingly tested for possible NT-3 potentiation at lower concentrations than necessary for NGF inhibition. Culture conditions were as described in Example 1. Cultures were untreated (controls) or treated with 200 ng/ml NT-3 and increasing concentrations of the inhibitors. The findings are shown in FIG. 6, in which \"Stau\", \"K2a\", \"K2b\", \"K57\", \"K58\", \"K59\" represent, respectively, staurosporine, K-252a, K-252b, KT5720, KT5823, and KT5296. […] Staurosporine and KT5296 were ineffective."}, "Cytotoxicity in vitro": {"experiment": "Cytotoxicity in vitro", "assay_type": "cell-based"}, "[2]": {"system": "chick dorsal root ganglia neurons (DRG)", "experiment": "Survival of dissociated chick DRG neurons (embryonic day 9)", "assay_type": "cell-based", "conditions": "growth factor alone, embryonic day 9 DRG cultures", "method": "DRGs of embryonic day 9 chicks were dissected and dissociated using enzymatic and mechanical procedures as described in the literature [Rosenthal, A. et al., \"Primary Structure and Biological Activity of a Novel Human Neurotrophic Factor,\" Neuron 4:767-773 (1990)]. 1800 neurons were plated per well in 96-well tissue culture plates pretreated with polyornithine (500 μg/ml) and laminin (10 μg/ml). Cells were incubated for 48 hrs with or without growth factors and the indicated concentrations of K-252b. Phase-bright cells with elaborated neurites 5× the diameter of the cell bodies were then counted.\nSimilar to the findings obtained in primary cultures of brain cholinergic neurons, low concentration of K-252b (50 nM) potentiated the survival promoting action of a maximally effective concentration of NT-3 (FIG. 3). Survival of dissociated chick DRG neurons in presence of rhNGF (100 ng/ml) or rhNT-3 (100 ng/ml) and K-252b is illustrated in FIG. 3; concentrations on the horizontal axis are for K-252b. The columns represent means +SEMs. […] High concentrations of K-252b (10 μM) inhibited the action of NGF on sensory neurons, as found for cholinergic neurons (FIG. 3)."}, "trk": {"system": "trk", "experiment": "trk tyrosine phosphorylation in PC12 cells (immunoprecipitation, anti-phosphotyrosine immunoblot)", "assay_type": "cell-based", "method": "To measure the status of trk tyrosine phosphorylation, PC12 cells were lysed and immunoprecipitated with anti-trk serum. The trk proteins were subjected to 7.5% SDS-PAGE and analyzed by immunoblotting with anti-phosphotyrosine antibodies as described in detail in the literature [Kaplan, D. R. et al., \"PDGF beta receptor stimulates tyrosine phosphorylation of GAP and association of GAP with a signaling complex,\" Cell 61:125-133 (1990)]. Tyrosine phosphorylation of cellular proteins was assayed by probing Western blots of lysates of PC12 cells incubated with K-252b and NT-3 or NGF with anti-phosphotyrosine antibodies. Phospholipase C gammal was identified in these blots as described elsewhere [Vetter, M.L. et al., \"Nerve growth factor rapidly stimulates tyrosine phosphorylation of phospholipase C-gammal by a kinase activity associated with the product of trk protooncogene,\" Proc. Natl Acad. Sci. USA 88:5650-5654 (1991)].\n(§2) Experiments on PC12 cells confirmed observations made on primary neuron cultures. Treatment with K-252b stimulated NT-3 induced neurite outgrowth and trk tyrosine phosphorylation in PC12 cells while inhibiting NGF induced effects. PC12 cells were incubated for 48 hours with K-252b (50 nM) and NT-3 or NGF (50 ng/ml). FIG. 4A illustrates the % cells with neurites after 48 hours incubation. Neurites were scored if they were a length of one cell body or more. PC12 cells were subsequently lysed and immunoprecipitated with anti-trk serum. trk proteins were subjected to SDS-PAGE and analyzed by immunoblotting with anti-phosphotyrosine antibodies (FIG. 4B). Lane 1, NT-3 +K-252b; lane 2, NT-3; lane 3, NGF +K-252b; lane 4, NGF. For FIG. 4C, PC12 cells were incubated for 1 hour in K-252b (50 nM or 10 μM) and with NT-3 or NGF for 5 minutes prior to lysis; other methods were the same as described for FIG. 4B. Lane 1, NT-3+10 μM K-252b; lane 2, NT-3±50 nM K-252b; lane 3, NT-3; lane 4, NGF+10 μM K-252b; lane 5, NGF+50 nM K-252b; lane 6, NGF; lane 7, untreated control."}, "[3]": {"system": "midbrain dopaminergic neurons (cultures of ventral mesencephalon)", "experiment": "Dopamine uptake in primary cultures of fetal rat ventral mesencephalon", "assay_type": "cell-based", "conditions": "for trophic action on dopaminergic neurons (dopamine uptake): growth factor alone", "method": "as §1\nIn Table 1, dopamine uptake is given as fmol/min/culture dish. Cultures were grown in 24-well plates for 7 days in L-15 medium with 5% horse and 0.5% fetal bovine serum and treated with growth factors and K-252b from the second day of culture. rhBDNF, 200 ng/ml; des-IGF-1, 1 μg/ml; n=4; *different from respective control group, p <0.01 (Student's t-test). The apparent difference between control cultures grown in presence and absence of K-252b was statistically not significant. The experiment shown is a representative case of a total of 5 independent experiments."}, "PC12 cells [4]": {"system": "PC12 cells", "experiment": "Neurite outgrowth of PC12 cells", "assay_type": "cell-based", "conditions": "NT-3 alone", "method": "PC12 cells were grown as described earlier [Kaplan et al., 1990, 1991a, b]. To assess effects on neurite outgrowth, cells were incubated for 48 hours with K-252b (50 nM) and NT-3 or NGF (50 ng/ml). Neurites were scored if they were a length of one cell body or more.\nas §2"}, "PC12 cells [5]": {"system": "PC12 cells", "conditions": "cited from earlier work"}, "[6]": {"system": "phosphorylation of selected proteins", "conditions": "cited from earlier work"}, "[7]": {"system": "PC12 pheochromocytoma cells", "conditions": "into neuron-like cells; cited from earlier work"}}}
{"molecule": "COC(=O)C1(OC)CC2OC1(C)n1c3ccccc3c3c4c(c5c6ccccc6n2c5c31)C(=O)N(C)C4", "note": "(stereo not drawn) [KT5823]", "values": [{"measurement": "NT-3 potentiation (ChAT, cholinergic neurons)", "setting": "[1]", "result": "potentiation similar to K-252b"}]}
{"molecule": "CN[C@@H]1C[C@H]2O[C@@](C)([C@@H]1OC)n1c3ccccc3c3c4c(c5c6ccccc6n2c5c31)C(=O)NC4", "note": "[staurosporine, reference compound]", "values": [{"measurement": "cytotoxicity", "setting": "Cytotoxicity in vitro", "result": "cytotoxic"}, {"measurement": "NT-3 potentiation (ChAT, cholinergic neurons)", "setting": "[1]", "result": "ineffective"}, {"measurement": "selective inhibition of NGF", "setting": "[1]; central cholinergic neurons", "result": "selectively inhibit NGF"}]}
{"molecule": "CCCCCCOC(=O)C1(O)CC2OC1(C)n1c3ccccc3c3c4c(c5c6ccccc6n2c5c31)C(=O)NC4", "note": "(stereo not drawn) [KT5720]", "values": [{"measurement": "NT-3 potentiation (ChAT, cholinergic neurons)", "setting": "[1]", "result": "potentiation similar to K-252b"}]}
{"molecule": "NGF: recombinant human nerve growth factor", "values": [{"measurement": "promotion of neuronal survival", "setting": "[2]", "result": "most effective"}, {"measurement": "trk tyrosine phosphorylation by growth factor alone", "setting": "trk; 48 hours", "result": "strongly stimulated"}, {"measurement": "trk tyrosine phosphorylation by growth factor alone", "setting": "trk; acute, 5 minutes", "result": "pronounced increase"}, {"measurement": "trophic action on dopaminergic neurons (dopamine uptake)", "setting": "[3]", "result": "not"}]}
{"molecule": "NT-3: recombinant human neurotrophin-3", "values": [{"measurement": "promotion of neuronal survival", "setting": "[2]", "result": "moderate effect"}, {"measurement": "trk tyrosine phosphorylation by growth factor alone", "setting": "trk; 48 hours", "result": "no phosphorylation was detectable"}, {"measurement": "trk tyrosine phosphorylation by growth factor alone", "setting": "trk; acute, 5 minutes", "result": "minimal"}, {"measurement": "neurite outgrowth induced by growth factor alone", "setting": "PC12 cells [4]", "result": "low levels"}, {"measurement": "trophic action on dopaminergic neurons (dopamine uptake)", "setting": "[3]", "result": "not"}, {"measurement": "ED50, stimulation of ChAT activity", "setting": "[1]; NT-3 + 50 nM K-252b", "result": "0.0143 ± 0.0016", "unit": "µg/mL"}, {"measurement": "ED50, stimulation of ChAT activity", "setting": "[1]; NT-3 alone", "result": "0.175 ± 0.0726", "unit": "µg/mL"}, {"measurement": "elevation of ChAT activity relative to the NGF-induced elevation", "setting": "[1]; NT-3 by itself", "result": "approximately 20%"}]}
{"molecule": "COC(=O)C1(O)CC2OC1(C)n1c3ccccc3c3c4c(c5c6ccccc6n2c5c31)C(=O)NC4", "note": "(stereo not drawn) [K-252a]", "values": [{"measurement": "effect on binding of 125I-NGF to PC12 cells", "setting": "PC12 cells [5]", "result": "does not interfere"}, {"measurement": "cytotoxicity", "setting": "Cytotoxicity in vitro", "result": "cytotoxic"}, {"measurement": "effect on NGF stimulated phosphorylation of selected proteins", "setting": "[6]; NGF stimulated", "result": "inhibits"}, {"measurement": "effect on bFGF or EGF stimulated phosphorylation of selected proteins", "setting": "[6]; bFGF or EGF stimulated", "result": "not"}, {"measurement": "NT-3 potentiation (ChAT, cholinergic neurons)", "setting": "[1]", "result": "potentiation similar to K-252b"}, {"measurement": "effect on trophic action of NGF on cholinergic neurons (ChAT)", "setting": "[1]; relatively high dosages", "result": "completely and selectively prevent"}, {"measurement": "effect on NGF induced morphological transformation of PC12 cells", "setting": "[7]", "result": "prevents"}]}
{"molecule": "rhBDNF: recombinant human brain-derived neurotrophic factor (protein, UniProt P23560 19-247, looked up) Neurotrophic factor BDNF …: APMKEANIRGQGGLAYPGVRTHGTLESVNGPKAGSRGLTSLADTFEHVIEELLDEDQKVRPNEENNKDADLYTSRVMLSSQVPLEPPLLFLLEEYKNYLDAANMSMRVRRHSDPARRGELSVCDSISEWVTAADKKTAVDMSGGTVTVLEKVPVSKGQLKQYFYETKCNPMGYTKEGCRGIDKRHWNSQCRTTQSYVRALTMDSKKRIGWRFIRIDTSCVCTLTIKRGR", "values": [{"measurement": "Dopamine uptake, % of Control", "setting": "[3]; No K-252b, rhBDNF 200 ng/ml or des-IGF-1 1 μg/ml", "result": 183, "unit": "%"}, {"measurement": "Dopamine uptake, Mean ± SEM", "setting": "[3]; No K-252b, rhBDNF 200 ng/ml or des-IGF-1 1 μg/ml, n=4, 7 days", "result": "28.0 ± 0.3", "unit": "fmol/min/culture dish"}, {"measurement": "trophic action on dopaminergic neurons (dopamine uptake)", "setting": "[3]", "result": "trophically acts"}]}
